Where “and” joins values, the source holds several entries; their conditions need not be identical. Identical values can stand only once.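 Values below derive from 48-hour exposures of cells grown in 96-well plates, with endpoints linearly interpolated between the two concentrations bracketing the appropriate inhibition level. Abbreviation: GI50, concentration required for 50% inhibition of growth. TGI: total growth inhibition.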
Tests used:
Assay in all cases: growth of human tumour cells (NCI), 48 h
[1] = system: NCI-H460 lung
[2] = system: OVCAR-3 ovarian
[3] = system: HOP-62 NSCLC
[4] = system: UO-31 renal
[5] = system: EKVX NSCLC
[6] = system: HOP-92 NSCLC
[7] = system: UACC-257 melanoma
[8] = system: CAKI-1 renal
[9] = system: NCI/ADR-RES ovarian
[10] = system: A549 NSCLC

Row | Structure (SMILES) | TGI [1] | TGI [2] | TGI [3] | TGI [4] | TGI [5] | TGI [6] | TGI [7] | TGI [8] | TGI [9] | TGI [10] | GI50 [1] | GI50 [2] | GI50 [3] | GI50 [4] | GI50 [5] | GI50 [6] | GI50 [7] | GI50 [8] | GI50 [9] | GI50 [10]
1 | C[C@@H](Cl)[C@H]1CCCN(Cc2ccc(Br)cc2)C1 | > 12.5 µM | > 12.5 µM | > 12.5 µM | > 12.5 µM | > 12.5 µM | > 12.5 µM | > 12.5 µM | > 12.5 µM | > 12.5 µM | > 12.5 µM |  |  |  |  |  |  |  |  |  | 
2 | CC(O)CCCOC(c1ccccc1)(c1ccccc1)c1ccccc1 (configuration not stated) | 30.6 µM | 27.3 µM | 31.4 µM | 26.7 µM | 28.1 µM | 25.5 µM | 30.4 µM | 29.9 µM | 24 µM | 27.3 µM |  |  |  |  |  |  |  |  |  | 
3 | C[C@@H]1S[C@H](c2ccccc2F)N2Cc3ccccc3N=C12 | > 100 µM | > 100 µM | > 100 µM | 54 µM | 95.9 µM | 65 µM | 85.7 µM | > 100 µM | 99.3 µM | > 100 µM |  |  |  |  |  |  |  |  |  | 
4 | C/C1=C\CC[C@@]2(C)O[C@@H]2C[C@@H](C2(C)CO2)CC/C(C)=C/CC1 (some centres not stated) | 37.8 µM | 48.9 µM | 97.3 µM | 55.9 µM | 36.1 µM | > 100 µM | > 100 µM | 39.9 µM | 46.8 µM | 36.5 µM |  |  |  |  |  |  |  |  |  | 
5 | C(/C=C(\Nc1ccccc1)C12CC3CC(CC(C3)C1)C2)=Nc1ccccc1 | 62.6 µM | 21.1 µM | 45.7 µM | 29.3 µM | 39.4 µM | 60.7 µM | 73.3 µM | 29.5 µM | 42.5 µM | 73.3 µM |  |  |  |  |  |  |  |  |  | 
6 | Cc1cc2c([N+](=O)[O-])cc3c(c2o1)C(=O)C=CC3=O | 36.7 µM | 19 µM | 34.1 µM | 3.62 µM | 11.5 µM | 3.22 µM | 7.23 µM | 2.68 µM | 65.1 µM | 37.2 µM |  |  |  |  |  |  |  |  |  | 
7 | COc1ccc(S(=O)(=O)N2C(=O)CCC2C(=O)NN)cc1 (configuration not stated) | > 100 µM | > 100 µM | > 100 µM | > 100 µM | > 100 µM | > 100 µM | > 100 µM | > 100 µM | > 100 µM | > 100 µM |  |  |  |  |  |  |  |  |  | 
8 | COc1cc(-c2cc(=O)c3cc4c(=O)cc(-c5cc(OC)c(OC)c(OC)c5)oc4cc3o2)cc(OC)c1OC | > 100 µM | > 100 µM | 26.4 µM | > 100 µM | > 100 µM | 43.3 µM | > 100 µM | > 31.6 µM | > 100 µM | > 100 µM |  |  |  |  |  |  |  |  |  | 
9 | Cc1cn(-c2cc(C(=O)Nc3cccc(-n4ccc5c(NC(=O)c6ccccc6)nccc54)c3)cc(C(F)(F)F)c2)cn1 | 1.2 µM | 1.03 µM | 15.3 µM | 14.9 µM | 30.2 µM | 6.49 µM | 19.7 µM | 2.99 µM | > 33.4 µM | 5.34 µM | 0.29 µM | 0.313 µM | 0.628 µM | 1.1 µM | 2.32 µM | 0.39 µM | 0.51 µM | 0.52 µM | 1.13 µM | 0.502 µM
10 | NCCCN1CCN(CCCNc2ccc3nnn4c5ccccc5c(=O)c2c34)CC1 | 58.1 µM | > 100 µM | > 100 µM | 90.7 µM | 41.1 µM | 96.6 µM | > 100 µM | 59.2 µM | > 100 µM | > 100 µM |  |  |  |  |  |  |  |  |  | 
11 | C[C@]12CC[C@@H]3c4ccc(O)cc4CC[C@H]3[C@@H]1C/C(=C\c1ccncc1)[C@@H]2O | 68.2 µM | 30.9 µM | 44.5 µM | 52.9 µM | > 100 µM | 32 µM | > 100 µM | 75.2 µM | 33.5 µM | > 100 µM |  |  |  |  |  |  |  |  |  | 
12 | CCCCn1cnc2c(c(CC#N)nn2-c2ccccc2)c1=N | > 100 µM | > 100 µM | > 100 µM | > 100 µM | > 100 µM | > 100 µM | > 100 µM | > 100 µM | > 100 µM | > 100 µM |  |  |  |  |  |  |  |  |  | 
13 | COc1nc2ncc([C@@H](OC(C)=O)[C@@H](COC(C)=O)OC(C)=O)nc2c(=O)[nH]1 | > 100 µM | > 100 µM | > 100 µM | > 100 µM | > 100 µM | > 100 µM | > 100 µM | > 100 µM | > 100 µM | > 100 µM |  |  |  |  |  | > 100 µM and 32.8 µM |  |  |  | 
14 | S=c1[nH]c2ccc(Br)cc2c(=S)s1 | 62.4 µM | > 100 µM | > 100 µM | 53.5 µM | 91.3 µM | 64.8 µM | 69.5 µM | 57.9 µM | > 100 µM | > 100 µM |  |  |  |  |  |  |  |  |  | 
15 | Cc1cc(-c2nc3ccccc3s2)ccc1NC(=O)[C@@H](N)CCCCN | 20.8 µM | 26.3 µM | 25.9 µM | 19.3 µM | 25.1 µM | 33.3 µM | 37.8 µM | 20.8 µM | 36.5 µM | 12.7 µM |  |  |  |  |  |  |  |  |  | 
16 | CCc1c[n+]([O-])c(C)cc1[N+](=O)[O-] | 63.5 µM | > 100 µM | > 100 µM | > 100 µM | > 100 µM | > 100 µM | > 100 µM | > 100 µM | > 100 µM | > 100 µM |  |  |  |  |  |  |  |  |  | 
17 | CC(=O)Oc1cc(C(F)(F)F)ccc1C(=O)OC1(C)OC(=O)c2ccc(C(F)(F)F)cc2O1 (configuration not stated) | > 100 µM | > 100 µM | > 100 µM | > 100 µM | > 100 µM | > 100 µM | > 100 µM | > 100 µM | > 100 µM | > 100 µM |  |  |  |  |  |  |  |  |  | 
18 | O=C(O)C(SC1=NNC2(C(=O)N1)c1ccccc1-c1ccccc12)SC1=NNC2(C(=O)N1)c1ccccc1-c1ccccc12 | > 10 µM | > 10 µM | > 10 µM | > 10 µM | > 10 µM | > 10 µM | > 10 µM | > 10 µM | > 10 µM | > 10 µM |  |  |  |  |  |  |  |  |  | 
19 | Nc1nc(Cl)cc(NCC2(CO)CCC(CCc3ccccc3)C2)n1 (configuration not stated) | 27.3 µM | 28.9 µM | 23.1 µM | 33.3 µM | 25.9 µM | 33.4 µM | 22.6 µM | 30.2 µM | 51.2 µM | 32 µM |  |  |  |  |  |  |  |  |  | 
20 | O=C(CNc1c(Cl)cccc1Cl)NC1C=Cc2ccc(S(=O)(=O)Nc3c(Cl)cccc3Cl)cc2C1=O (configuration not stated) | > 100 µM | > 100 µM | > 100 µM | > 100 µM | > 100 µM | > 100 µM | > 100 µM | > 100 µM | > 100 µM | > 100 µM |  |  |  |  |  |  |  |  |  | 
21 | C=CCNC(=S)N=Nc1c(O)[nH]c2ccc([N+](=O)[O-])cc12 | > 100 µM | > 100 µM | > 100 µM | > 100 µM | > 100 µM | > 100 µM | > 100 µM | > 100 µM | > 100 µM | > 100 µM |  |  |  |  |  |  |  |  |  | 
22 | CC(=O)O/N=C/c1c2ccccc2cc2ccccc12 | > 100 µM | > 100 µM | > 100 µM | > 100 µM | > 100 µM | > 100 µM | > 100 µM | > 100 µM | > 100 µM | > 100 µM |  |  |  |  |  |  |  |  |  | 
23 | c1ccc2c(c1)c1c(n2CCOCCN2CCOCC2)CCCC1 | > 100 µM | > 100 µM | > 100 µM | > 100 µM | > 100 µM | 71.9 µM | 47.8 µM | > 100 µM | 54.9 µM | > 100 µM |  |  |  |  |  |  |  |  |  | 
24 | Clc1ccc(CSCCc2ccncc2)cc1Cl | > 100 µM | 33.1 µM | 50.2 µM | 56.9 µM | 57 µM | 30.4 µM | > 100 µM | > 100 µM | 50.5 µM | 96.2 µM |  |  |  |  |  |  |  |  |  | 
25 | Nc1ccc(-c2nc3ccccc3s2)cc1C(F)(F)F | 28.5 µM | 30.2 µM | 30 µM | 29.4 µM | 23.9 µM | 33.2 µM | 29 µM | 28.7 µM | 35.2 µM | 37.4 µM | 14.6 µM |  |  |  |  |  |  |  |  | 
26 | COC(=O)c1cc2c(cc1CC1Cc3cc4c(cc3C1)CCC4)CCC2 | > 100 µM | > 100 µM | > 100 µM | > 100 µM | > 100 µM | 98.9 µM | 80.9 µM | > 100 µM | > 100 µM | > 100 µM |  |  |  |  |  |  |  |  |  | 
27 | O=C1NCC(NC(=O)C(F)(F)F)c2c(Br)sc(Br)c21 (configuration not stated) | > 100 µM | > 100 µM | > 100 µM | > 100 µM | > 100 µM | > 100 µM | > 100 µM | > 100 µM | > 100 µM | > 100 µM |  |  |  |  |  |  |  |  |  | 
28 | CCN1CCCC(NCc2c3ccccc3c(CNC3CCCN(CC)C3)c3ccccc23)C1 (configuration not stated) | 18.3 µM | 26.1 µM | > 63.4 µM | 53.4 µM | 35.9 µM | 38.6 µM | 26.4 µM | 50 µM | 79.7 µM | > 100 µM |  |  |  |  |  |  |  |  |  | 
